Biological target: T1, α1β3γ2 GABAA receptor, γ2S325L variant (Homo sapiens, UniProt P14867+P18507+P28472, S325L)
T1 construct: expressed in transfected cells; host or cells: HEK293T
T1 sequence (P14867 28-456): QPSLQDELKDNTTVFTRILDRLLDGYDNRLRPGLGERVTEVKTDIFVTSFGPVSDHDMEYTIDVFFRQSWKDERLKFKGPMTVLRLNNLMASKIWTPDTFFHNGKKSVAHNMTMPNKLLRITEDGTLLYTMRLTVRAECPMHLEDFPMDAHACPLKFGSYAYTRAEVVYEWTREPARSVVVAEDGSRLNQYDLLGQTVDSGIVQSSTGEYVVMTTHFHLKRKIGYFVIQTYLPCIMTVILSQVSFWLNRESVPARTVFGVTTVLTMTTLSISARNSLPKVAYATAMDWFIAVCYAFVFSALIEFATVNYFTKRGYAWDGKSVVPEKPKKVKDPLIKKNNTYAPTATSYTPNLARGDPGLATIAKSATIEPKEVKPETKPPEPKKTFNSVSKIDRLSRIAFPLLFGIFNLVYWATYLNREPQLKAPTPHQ
T1 sequence (P28472 26-473 isoform P28472-2): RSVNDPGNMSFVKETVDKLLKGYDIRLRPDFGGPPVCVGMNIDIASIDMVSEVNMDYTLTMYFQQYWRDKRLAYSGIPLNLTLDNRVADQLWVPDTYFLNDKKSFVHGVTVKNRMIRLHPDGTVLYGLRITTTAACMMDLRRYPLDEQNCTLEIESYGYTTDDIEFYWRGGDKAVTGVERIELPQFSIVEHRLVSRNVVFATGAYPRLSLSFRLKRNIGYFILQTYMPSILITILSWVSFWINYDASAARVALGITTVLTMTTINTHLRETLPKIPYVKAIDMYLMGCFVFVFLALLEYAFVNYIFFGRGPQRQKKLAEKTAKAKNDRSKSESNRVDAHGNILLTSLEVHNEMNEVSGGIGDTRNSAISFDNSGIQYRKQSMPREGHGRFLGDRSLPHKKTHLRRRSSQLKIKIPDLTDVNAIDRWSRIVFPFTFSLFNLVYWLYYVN
T1 sequence (P18507 40-475 S325L): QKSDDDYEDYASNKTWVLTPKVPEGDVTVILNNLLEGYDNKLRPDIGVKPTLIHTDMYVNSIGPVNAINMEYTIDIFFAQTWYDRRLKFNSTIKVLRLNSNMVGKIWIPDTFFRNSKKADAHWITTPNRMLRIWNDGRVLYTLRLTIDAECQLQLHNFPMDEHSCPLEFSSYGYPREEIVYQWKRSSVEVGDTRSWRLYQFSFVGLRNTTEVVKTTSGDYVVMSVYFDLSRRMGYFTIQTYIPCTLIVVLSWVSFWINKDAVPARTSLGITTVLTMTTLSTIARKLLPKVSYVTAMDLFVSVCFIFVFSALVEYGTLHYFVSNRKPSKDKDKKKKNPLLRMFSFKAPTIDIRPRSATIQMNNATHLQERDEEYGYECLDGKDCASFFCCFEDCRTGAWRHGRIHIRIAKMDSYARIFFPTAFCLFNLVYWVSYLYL
Assay: Automated patch clamp of GABA-elicited currents (SyncroPatch 384PE), γ2S325L
Assay type: cell-based
Conditions: mean
Procedure: The coding sequences of human α1 (GABRA1, NM_000806), β3 (GABRB3, NM_021912), and γ2 (GABRG2, NM_198904.2) GABAAR subunits were subcloned into the pcDNA3.1 expression vectors (Invitrogen, Waltham, MA, USA).
HEK293T cells (ATCC, CRL-11268) were cultured at 37 °C in a humidified 5% CO2 incubator and maintained in Dulbecco’s modified Eagle’s medium (Invitrogen) supplemented with 10% fetal bovine serum (Life Technologies, Carlsbad, CA, USA), and 100 IU/mL of penicillin/streptomycin (Life Technologies). For the expression experiments, 4 × 10^5 cells were transfected using polyethylenimine (PEI) reagent (40 kD, Polysciences, Warrington, PA, USA) at a DNA: to transfection reagent ratio of 1:2.5 and harvested 36 h after transfection. To express WT and variant α1β3γ2 receptors, a total of 3 µg of α1, β3, and γ2 (WT or mutant) subunit cDNAs were transfected at a ratio of 1:1:1 into 60 mm culture dishes. For the mock-transfected condition, an empty pcDNA3.1 vector was added for a final cDNA transfection amount of 3 μg. For the electrophysiology experiments, 2.5 × 10^5 cells were plated in 100 mm culture dishes and transfected after 24 h with 3 μg of cDNA of each α1, β3, γ2 (wild-type or mutant) subunit, using X-tremeGENE HP DNA transfection Reagent (Roche Diagnostics, Basel, Switzerland), following the manufacturer’s protocol. Recordings were obtained forty-eight hours after transfection.
Whole-cell patch clamp recordings were conducted according to the manufacturer’s standard procedure for the SyncroPatch 384 [31]. Whole-cell voltage-clamp recordings were performed at room temperature on HEK293T cells 48 h after transfection with GABAAR subunits, using the SyncroPatch 384PE (Nanion Technologies, Munich, Germany). Cells, at a concentration of 400,000 cells/mL, were harvested in suspension in external solution containing 140 mM of NaCl, 2 mM of CaCl2, 4 mM of KCl, 1 mM of MgCl2, 5 mM of glucose, and 10 mM of HEPES (pH 7.4 with NaOH, 298 mOsm). The cells were loaded in a multi-hole (4 holes per well) 384-well Nanion patch clamp (NPC) chip with a thick borosilicate glass bottom and an average resistance pore size of […]. Built-in electrophysiological protocols were used, and the data were digitized using PatchControl 384 (Nanion Technologies) application. Using PatchControl 384, electrophysiological parameters, such as seal resistance, capacitance, and series resistance, were determined for each well after the application of a test pulse, and subsequently monitored over time. […] The currents were normalized to the maximal response of each well, and the concentration–response curves were calculated from single-point additions. The EC50 values for each variant or wild-type receptor were calculated across multiple wells for each experimental condition.

Deactivation (1 mM GABA for 5 ms, HEK293T, -80 mV): 307.7 ms
IMAX (maximal GABA-evoked peak current) (1 mM GABA for 5 ms, HEK293T): 0.78 nA
IMAX variant/IMAX WT (1 mM GABA): 39.07%
Rise Time (10–90% rise time, 1 mM GABA for 5 ms, HEK293T): 68.01 ms
SMILES: NCCCC(=O)O [GABA, γ-aminobutyric acid]
